Measured values published in PubChem BioAssay (NCI).
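Compound exposure: 48 hours, 5 concentrations, 96-well plates. At the TGI there is no net growth.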

Assays:
Assay in all cases: DTP human tumour cell line panel, 48 h
[1] = test system: HT29 colon
[2] = test system: A498 renal
[3] = test system: OVCAR-4 ovarian
[4] = test system: HOP-62 NSCLC
[5] = test system: LOX IMVI melanoma
[6] = test system: SNB-19 CNS
[7] = test system: UACC-257 melanoma
[8] = test system: RPMI-8226 leukemia
[9] = test system: OVCAR-3 ovarian
[10] = test system: MDA-N
[11] = test system: SF-268 CNS
[12] = test system: NCI/ADR-RES ovarian
[13] = test system: NCI-H23 lung
[14] = test system: A549 NSCLC
[15] = test system: SK-MEL-2 melanoma

SMILES | TGI [1] [µM] | TGI [2] [µM] | TGI [3] [µM] | TGI [4] [µM] | TGI [5] [µM] | TGI [6] [µM] | TGI [7] [µM] | TGI [8] [µM] | TGI [9] [µM] | TGI [10] [µM] | TGI [11] [µM] | TGI [12] [µM] | TGI [13] [µM] | TGI [14] [µM] | TGI [15] [µM]
Cc1cc(C)nc(NS(=O)(=O)c2ccc(NC(=O)c3ccc4nc5ccccc5c(Nc5ccc(S(=O)(=O)Nc6nc(C)cc(C)n6)cc5)c4c3)cc2)n1 | > 100 | > 100 | > 100 | > 100 | 43.4 | > 100 | > 100 | > 100 | > 100 | > 100 | > 100 | > 100 | > 100 | > 100 | > 100
COC(=O)c1ccccc1Nc1ccccc1C(=O)OC | > 100 | > 100 | > 100 | > 100 | > 100 | > 100 | > 100 | > 100 | > 100 | > 100 | > 100 | > 100 | > 100 | > 100 | > 100
N#Cc1c(Nc2ccccc2)[n+]([O-])c2ccc(Cl)cc2[n+]1[O-] | 8.22 | > 61.3 | 4.17 | > 69.9 | 12.7 | > 77.4 | > 25.3 | > 24.7 | 9.76 | > 100 | > 48.6 | 8.15 | 17.4 | > 60.8 | > 72
COc1cc(C2S/C(=C/c3ccccc3)C(=O)N2c2ccccn2)cc(OC)c1OC (stereo not given) | > 47 | 33.4 | 63.2 | 48.8 | 26.9 | 46.5 | > 100 | 73.3 | 44.4 | 34.4 | 36.2 | 54 | 34 | > 64 | > 71.3
O=c1cc(-c2cccc(Br)c2)[nH]c2cc3c(cc12)OCO3 | > 83.3 | 13.8 | > 100 | 4.8 | 17.4 | 10.3 | > 100 | > 100 | 9.5 | 2 | 24 | 30.7 | 12.8 | 25.2 | 6.67
Cc1cccc2c(=O)c3c(O)cc4c(c3n(C)c12)C=CC(C)(C)O4 | 36.8 | > 100 | > 100 | > 100 | > 100 | > 100 | > 100 | 66.5 | > 100 | > 100 | > 100 | > 100 | > 100 | > 100 | > 100
Nc1c(O)c(C(=O)O)cc2ccccc12 | 31.8 | > 100 | 48.9 | > 100 | 22.5 | > 100 | 38.4 | 95.7 | 94.5 | 32.3 | > 100 | > 100 | 65.3 | > 100 | 35
CCCCn1c2c(n(CCCC)c1=[Se])-c1c(n(CCCC)c(=[Se])n1CCCC)S[Se][Se]S2 | > 64.6 | > 100 | 25.8 | 49.1 | 30.1 | > 65.2 | > 100 | > 70 | 25 | > 100 | > 100 | 39.5 | 70.4 | > 61.3 | 45.9
C/C(CC(O)(C(F)(F)F)C(F)(F)F)=N/Nc1ccc([N+](=O)[O-])cc1[N+](=O)[O-] | > 10 | 8.37 | > 10 | 9.15 | > 10 | > 10 | > 10 | 5.91 | 8.33 | > 10 | > 10 | > 10 | 7.27 | > 10 | 6.11
Cc1ccc2c(c1)C/C(=C\c1ccccc1C(=O)O)C2=O | > 100 | > 100 | > 100 | > 100 | > 100 | > 100 | > 100 | > 100 | > 100 | > 100 | > 100 | > 100 | > 100 | > 100 | > 100
CC(=O)Nc1ccc2c3c(cc(O)c2c1)N(C(=O)CCCCCC(=O)Nc1ccc2c4c(cc(O)c2c1)N(C(=O)OC(C)(C)C)CC4CCl)CC3CCl (stereo not given) | > 39.8 | 5.31 | > 63.6 | 12 | 18.2 | > 35 | > 28.6 | > 34.6 | 4.54 | 3.56 | 6.87 | > 100 | 3.59 | > 55 | 4.02
CC1OC(n2cnc3c(N)nc(Cl)nc32)C(C)(O)C1O (stereo not given) | > 25 | > 25 | > 25 | > 25 | > 25 | > 25 | > 25 | > 25 | > 25 | > 25 | > 25 | > 25 | > 25 | > 25 | > 25
COc1ccc(-c2cc(-c3ccccc3)nc(N)n2)c(O)c1 | > 100 | > 100 | > 100 | > 100 | > 100 | > 100 | > 100 | 5.76 | > 100 | > 100 | > 100 | > 100 | > 100 | > 100 | > 100
COc1cc(N(CCC#N)CCC#N)ccc1/C(N=Nc1cccc(C)c1)=N\NC(=O)c1ccc(C)cc1 | > 100 | 44.1 | > 100 | > 100 | > 100 | > 100 | > 100 | > 100 | > 100 | > 100 | > 100 | > 100 | > 100 | > 100 | > 100
N=c1oc2ccc(Cl)cc2cc1C(=O)NC1CCCCC1 | > 100 | > 100 | > 100 | > 100 | > 100 | > 100 | > 100 | > 100 | > 100 | > 100 | > 100 | > 100 | > 100 | > 100 | > 100
C=[N+](CNC(=O)CNC(=O)C(Cc1ccccc1)NC(=O)OC(C)(C)C)C(=O)CNC(=O)C(Cc1ccccc1)NC(=O)OC(C)(C)C (stereo not given) | > 100 | > 100 | > 100 | > 100 | > 100 | > 100 | > 100 | > 100 | > 100 | > 100 | > 100 | > 100 | > 100 | > 100 | > 100
